Where two headings read alike, the source gives them in different places.
How the values were obtained:
Y2 receptor = target: T1, Y2 receptor (Homo sapiens, UniProt P49146); test: Y2 receptor binding assay ([125I]PYY, membrane protein); conditions: [125I]PYY, membrane protein; read-out: hNPY2 IC50
T1 sequence (P49146 1-381): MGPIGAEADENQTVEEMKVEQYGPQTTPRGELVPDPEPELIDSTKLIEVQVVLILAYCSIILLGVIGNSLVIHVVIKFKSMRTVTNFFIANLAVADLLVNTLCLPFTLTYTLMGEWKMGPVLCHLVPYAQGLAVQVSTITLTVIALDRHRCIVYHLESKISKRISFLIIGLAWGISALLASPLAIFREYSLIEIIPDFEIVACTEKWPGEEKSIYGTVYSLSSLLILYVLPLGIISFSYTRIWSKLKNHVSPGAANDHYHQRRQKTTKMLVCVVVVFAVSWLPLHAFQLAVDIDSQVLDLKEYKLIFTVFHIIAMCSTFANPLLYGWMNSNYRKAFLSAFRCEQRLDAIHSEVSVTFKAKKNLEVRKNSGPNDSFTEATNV
Summary of the method: (§1)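 Filtration binding with membrane protein and drug dilution, 2 h at room temperature with mixing, radioactivity counted by gamma or scintillation. Y2: 25 pM [125I]PYY in Krebs-Ringer bicarbonate pH 7.4 with 0.01% BSA, nonspecific by 1 μM NPY. Y4/PP1: 50 pM [125I]hPP in HEPES-buffered saline pH 7.4 with protease inhibitors and 0.3% BSA, nonspecific by 1 μM hPP.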

Human NPY1 receptor = target: T2, Human NPY1 receptor (Homo sapiens, UniProt P25929); test: Human NPY1 receptor binding assay ([125I]PYY, SK-N-MC cells)
T2 construct: host or cells: SK-N-MC cells
T2 sequence (P25929 1-384): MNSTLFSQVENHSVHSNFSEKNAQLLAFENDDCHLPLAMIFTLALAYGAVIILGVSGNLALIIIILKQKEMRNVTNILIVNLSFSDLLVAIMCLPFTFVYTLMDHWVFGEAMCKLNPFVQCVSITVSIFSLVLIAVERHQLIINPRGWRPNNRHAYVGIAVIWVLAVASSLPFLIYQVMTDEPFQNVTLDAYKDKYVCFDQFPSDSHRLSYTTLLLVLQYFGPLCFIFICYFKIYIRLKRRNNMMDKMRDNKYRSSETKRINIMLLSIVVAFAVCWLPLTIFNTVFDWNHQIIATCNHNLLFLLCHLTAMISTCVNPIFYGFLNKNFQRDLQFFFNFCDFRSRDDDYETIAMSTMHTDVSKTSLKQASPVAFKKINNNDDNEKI
Summary of the method: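 Whole-cell competition with ~50 pM [125I]PYY on SK-N-MC monolayers, 3 h at room temperature after 30 min preincubation in HEPES-buffered (pH 7.3) serum-free DMEM containing protease inhibitors. Gamma counting of cell lysates; 1 μM NPY gave nonspecific binding.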

Human NPY5 receptor = target: T3, Human NPY5 receptor (Homo sapiens, UniProt Q15761); test: Human NPY5 receptor binding assay ([125I]PYY, membrane protein)
T3 sequence (Q15761 1-445): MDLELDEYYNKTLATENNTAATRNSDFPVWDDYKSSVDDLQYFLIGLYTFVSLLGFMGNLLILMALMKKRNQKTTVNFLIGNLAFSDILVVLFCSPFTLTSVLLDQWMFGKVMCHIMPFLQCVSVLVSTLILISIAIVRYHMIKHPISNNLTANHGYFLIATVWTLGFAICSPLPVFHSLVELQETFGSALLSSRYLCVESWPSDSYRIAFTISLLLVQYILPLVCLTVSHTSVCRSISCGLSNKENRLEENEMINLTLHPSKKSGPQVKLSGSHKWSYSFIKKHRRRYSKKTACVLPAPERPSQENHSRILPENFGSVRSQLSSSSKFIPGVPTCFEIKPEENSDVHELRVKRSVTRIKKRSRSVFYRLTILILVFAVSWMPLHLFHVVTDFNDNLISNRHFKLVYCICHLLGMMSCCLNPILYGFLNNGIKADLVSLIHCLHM
Summary of the method: (§2)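 Competition against porcine [125I]PYY (75-100 pM) on receptor membranes, 2 h, room temperature, Tris-based pH 7.4 buffer with BSA and bacitracin. Bound radioactivity after filtration and ice-cold rinse counted by gamma or liquid scintillation; 1 μM PYY defines nonspecific binding.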

human Y4/PP1 receptor = human Y4/PP1 receptor (Homo sapiens, UniProt P50391); test: Human Y4/PP1 receptor binding assay ([125I]human PP, membrane protein)
Summary of the method: as §1

Rat NPY5 receptor [1] = target: T4, Rat NPY5 receptor (Rattus norvegicus, UniProt Q63634); test: Rat NPY5 receptor binding assay ([125I]PYY, membrane protein)
T4 sequence (Q63634 1-445): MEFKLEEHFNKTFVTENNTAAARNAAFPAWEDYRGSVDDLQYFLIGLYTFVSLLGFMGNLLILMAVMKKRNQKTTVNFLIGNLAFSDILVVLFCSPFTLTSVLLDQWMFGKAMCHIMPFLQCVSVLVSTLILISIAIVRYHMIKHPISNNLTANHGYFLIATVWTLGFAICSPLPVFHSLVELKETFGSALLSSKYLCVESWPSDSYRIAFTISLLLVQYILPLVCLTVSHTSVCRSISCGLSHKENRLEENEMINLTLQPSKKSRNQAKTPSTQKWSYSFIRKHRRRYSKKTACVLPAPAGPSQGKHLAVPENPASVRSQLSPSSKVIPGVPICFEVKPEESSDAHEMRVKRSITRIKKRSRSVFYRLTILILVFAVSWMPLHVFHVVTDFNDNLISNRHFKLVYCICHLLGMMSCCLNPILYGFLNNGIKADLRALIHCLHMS
Summary of the method: as §2

Rat NPY5 receptor [2] = target: T4, Rat NPY5 receptor; test: Rat NPY5 cyclase assay (in vitro functional assay, forskolin-stimulated adenylate cyclase, cAMP); format: cell-based; conditions: 20 min; 10 μM; percentage of forskolin-stimulated adenylate cyclase; read-out: rNPY5 % FSAC (10 μM)
Summary of the method: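 Cells stably expressing rat NPY5 receptor, in serum-free DMEM with 10 mM HEPES pH 7.4 and 1 mM IBMX, received […] plus compound for 20 min at 37 °C. Reactions were stopped by boiling. cAMP was quantified by radioimmunoassay and expressed as % of forskolin-stimulated adenylate cyclase.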

[3] = [125I]PYY, SK-N-MC cells, read-out: hNPYI IC50
[4] = [125I]PYY, read-out: hNPY5 IC50
[5] = [125I]human PP, membrane protein, read-out: hNPY4 IC50
[6] = [125I]PYY, read-out: rNPY5 IC50

Chain of human Y4/PP1 receptor (P50391 whole entry): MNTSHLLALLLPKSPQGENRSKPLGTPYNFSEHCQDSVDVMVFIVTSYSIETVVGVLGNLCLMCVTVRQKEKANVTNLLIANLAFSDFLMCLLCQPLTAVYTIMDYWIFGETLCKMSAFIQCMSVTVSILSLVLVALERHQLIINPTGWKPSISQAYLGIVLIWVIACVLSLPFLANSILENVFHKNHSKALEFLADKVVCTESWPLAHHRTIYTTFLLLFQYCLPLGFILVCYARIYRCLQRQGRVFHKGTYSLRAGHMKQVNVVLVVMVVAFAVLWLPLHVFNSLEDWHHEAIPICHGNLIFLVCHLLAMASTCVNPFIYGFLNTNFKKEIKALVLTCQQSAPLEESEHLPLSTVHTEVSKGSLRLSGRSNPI

SMILES	IC50 (Y2 receptor) [µM]	IC50 (Human NPY1 receptor; [3]) [µM]	IC50 (Human NPY5 receptor; [4]) [µM]	IC50 (human Y4/PP1 receptor; [5]) [µM]	melting point [°C]	IC50 (Rat NPY5 receptor [1]; [6]) [µM]	activity at 10 µM (Rat NPY5 receptor [2]) [%]	IC50 (Human NPY5 receptor; hNPY5 IC50, [125I]PYY) [µM]	IC50 (Rat NPY5 receptor [1]; rNPY5 IC50, [125I]PYY) [µM]	IC50 (Human NPY1 receptor) [µM]	IC50 (human Y4/PP1 receptor) [µM]
Cl.N#CC(c1ccccc1)C1CCN(CC(=O)Nc2ccc(C3CCCCC3)cc2)CC1 (centres unmarked) [Compound 300, 2-[4-(Cyano-phenyl-methyl)-piperidin-1-yl]-N-(4-cyclohexyl-phenyl)-acetamide; hydrochloride]	> 5	> 5	0.013	> 5	150	0.013	90	–	–	–	–
CC(=O)NCC1(c2ccccc2)CCN(CC(=O)Nc2ccc(C3CCCCC3)cc2)CC1.O=C(O)C(=O)O [Compound 301, 2-[4-(Acetylamino-methyl)-4-phenyl-piperidin-1-yl]-N-(4-cyclohexyl-phenyl)-acetamide; compound with oxalic acid]	> 5	> 5	–	> 5	146	–	101	0.032	0.032	–	–
CCNC1(C(N)=O)CCN(CC(=O)Nc2ccc(C3CCCCC3)cc2)CC1.O=C(O)C(=O)O [Compound 302, 1-[(4-Cyclohexyl-phenylcarbamoyl)-methyl]-4-ethylamino-piperidine-4-carboxylic acid amide; compound with oxalic acid]	> 5	> 5	0.006	> 5	184	0.006	107	–	–	–	–
CCC(=O)C1(c2ccccc2)CCN(CC(=O)Nc2ccc(C3CCCCC3)cc2)CC1.Cl [Compound 303, N-(4-Cyclohexyl-phenyl)-2-(4-phenyl-4-propionyl-piperidin-1-yl)-acetamide; hydrochloride]	> 5	–	0.004	–	252	–	93	–	0.006	> 5	> 5
CC(=O)NC1CCN(CC(=O)Nc2ccc(C(=O)c3ccccc3)cc2)C1.O=C(O)C(=O)O (centres unmarked) [Compound 304, 2-(3-Acetylamino-pyrrolidin-1-yl)-N-(4-benzoyl-phenyl)-acetamide; compound with oxalic acid]	> 5	> 5	0.15	> 5	100	0.18	85	–	–	–	–

From patent US6410792B1, “Amide derivatives and methods for using the same as selective neuropeptide Y receptor antagonists” (Bayer Corporation, priority 1997, dated 2002)
